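The concentration for 50% growth inhibition is given as GI50. At the TGI there is no net growth.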
Assays:
Assay in all cases: NCI anticancer screen, dose series, 384-well format
NCI-H23 lung = tested on: NCI-H23 lung
OVCAR-5 ovarian = tested on: OVCAR-5 ovarian
SF-295 CNS = tested on: SF-295 CNS
NCI-H322M lung = tested on: NCI-H322M lung
786-0 renal = tested on: 786-0 renal
OVCAR-4 ovarian = tested on: OVCAR-4 ovarian
HCC-2998 colon = tested on: HCC-2998 colon
A549 NSCLC = tested on: A549 NSCLC
SK-MEL-28 melanoma = tested on: SK-MEL-28 melanoma
SF-539 CNS = tested on: SF-539 CNS
KM12 colon = tested on: KM12 colon
HL-60(TB) leukemia = tested on: HL-60(TB) leukemia
BT-549 breast = tested on: BT-549 breast
DU-145 prostate = tested on: DU-145 prostate
SNB-75 CNS = tested on: SNB-75 CNS
HCT-116 colon = tested on: HCT-116 colon
HS 578T breast = tested on: HS 578T breast
SR leukemia = tested on: SR leukemia
LOX IMVI melanoma = tested on: LOX IMVI melanoma
HOP-62 NSCLC = tested on: HOP-62 NSCLC
TK-10 renal = tested on: TK-10 renal
SK-OV-3 ovarian = tested on: SK-OV-3 ovarian
NCI/ADR-RES ovarian = tested on: NCI/ADR-RES ovarian
U251 glioblastoma = tested on: U251 glioblastoma
NCI-H460 NSCLC = tested on: NCI-H460 NSCLC
T-47D breast = tested on: T-47D breast
NCI-H226 lung = tested on: NCI-H226 lung
ACHN renal = tested on: ACHN renal
MOLT-4 leukemia = tested on: MOLT-4 leukemia
HT29 colon = tested on: HT29 colon
MDA-MB-468 breast = tested on: MDA-MB-468 breast
PC-3 prostate = tested on: PC-3 prostate
MDA-MB-231 breast = tested on: MDA-MB-231 breast
MALME-3M melanoma = tested on: MALME-3M melanoma
COLO 205 colon = tested on: COLO 205 colon
HOP-92 NSCLC = tested on: HOP-92 NSCLC
A498 renal = tested on: A498 renal
RXF 393 renal = tested on: RXF 393 renal
EKVX NSCLC = tested on: EKVX NSCLC
UACC-257 melanoma = tested on: UACC-257 melanoma
CAKI-1 renal = tested on: CAKI-1 renal
OVCAR-3 ovarian = tested on: OVCAR-3 ovarian
SF-268 CNS = tested on: SF-268 CNS
UACC-62 melanoma = tested on: UACC-62 melanoma
UO-31 renal = tested on: UO-31 renal
HCT-15 colon = tested on: HCT-15 colon
M14 melanoma = tested on: M14 melanoma
OVCAR-8 ovarian = tested on: OVCAR-8 ovarian
MCF7 breast = tested on: MCF7 breast
SN12C renal = tested on: SN12C renal
IGROV1 ovarian = tested on: IGROV1 ovarian
SNB-19 CNS = tested on: SNB-19 CNS
RPMI-8226 leukemia = tested on: RPMI-8226 leukemia
SW-620 colon = tested on: SW-620 colon
MDA-MB-435 melanoma = tested on: MDA-MB-435 melanoma
SK-MEL-5 melanoma = tested on: SK-MEL-5 melanoma
NCI-H522 lung = tested on: NCI-H522 lung

COc1cc2nccc(Oc3ccc(NC(=O)NC4CC4)c(Cl)c3)c2cc1C(N)=O
GI50 (NCI-H23 lung): 14.2 µM
TGI (NCI-H23 lung): 55.8 µM
GI50 (OVCAR-5 ovarian): 50 µM
TGI (OVCAR-5 ovarian): > 100 µM
GI50 (SF-295 CNS): 30.1 µM
TGI (SF-295 CNS): > 100 µM
GI50 (NCI-H322M lung): 48.3 µM
TGI (NCI-H322M lung): > 100 µM
GI50 (786-0 renal): 22.9 µM
TGI (786-0 renal): > 100 µM
GI50 (OVCAR-4 ovarian): 14.7 µM
TGI (OVCAR-4 ovarian): 44.7 µM
GI50 (HCC-2998 colon): > 100 µM
TGI (HCC-2998 colon): > 100 µM
GI50 (A549 NSCLC): 40 µM
TGI (A549 NSCLC): > 100 µM
GI50 (SK-MEL-28 melanoma): 72.8 µM
TGI (SK-MEL-28 melanoma): > 100 µM
GI50 (SF-539 CNS): 2.41 µM
TGI (SF-539 CNS): 69.4 µM
GI50 (KM12 colon): 5.76 µM
TGI (KM12 colon): > 100 µM
GI50 (HL-60(TB) leukemia): 25.6 µM
TGI (HL-60(TB) leukemia): 68.9 µM
GI50 (BT-549 breast): 3.76 µM
TGI (BT-549 breast): 20.4 µM
GI50 (DU-145 prostate): 26.1 µM
TGI (DU-145 prostate): > 100 µM
GI50 (SNB-75 CNS): 12.1 µM
TGI (SNB-75 CNS): 38.3 µM
GI50 (HCT-116 colon): 38.3 µM
TGI (HCT-116 colon): > 100 µM
GI50 (HS 578T breast): 12.2 µM
TGI (HS 578T breast): 28 µM
GI50 (SR leukemia): 31.4 µM
TGI (SR leukemia): 50.9 µM
GI50 (LOX IMVI melanoma): 52.2 µM
TGI (LOX IMVI melanoma): > 100 µM
GI50 (HOP-62 NSCLC): 38.2 µM
TGI (HOP-62 NSCLC): > 100 µM
GI50 (TK-10 renal): 51.5 µM
TGI (TK-10 renal): > 100 µM
GI50 (SK-OV-3 ovarian): 35.9 µM
TGI (SK-OV-3 ovarian): > 100 µM
GI50 (NCI/ADR-RES ovarian): 63.8 µM
TGI (NCI/ADR-RES ovarian): > 100 µM
GI50 (U251 glioblastoma): 30.7 µM
TGI (U251 glioblastoma): > 100 µM
GI50 (NCI-H460 NSCLC): 41 µM
TGI (NCI-H460 NSCLC): > 100 µM
GI50 (T-47D breast): 16.8 µM
TGI (T-47D breast): 78.7 µM
GI50 (NCI-H226 lung): 0.817 µM
TGI (NCI-H226 lung): 22.2 µM
GI50 (ACHN renal): 11.6 µM
TGI (ACHN renal): 24.2 µM
GI50 (MOLT-4 leukemia): 5.38 µM
TGI (MOLT-4 leukemia): 23.3 µM
GI50 (HT29 colon): > 100 µM
TGI (HT29 colon): > 100 µM
GI50 (MDA-MB-468 breast): 11.5 µM
TGI (MDA-MB-468 breast): 66.2 µM
GI50 (PC-3 prostate): 61.7 µM
TGI (PC-3 prostate): > 100 µM
GI50 (MDA-MB-231 breast): 17.3 µM
TGI (MDA-MB-231 breast): 59.4 µM
GI50 (MALME-3M melanoma): 19.3 µM
TGI (MALME-3M melanoma): 77.8 µM
GI50 (COLO 205 colon): 69.5 µM
TGI (COLO 205 colon): > 100 µM
GI50 (HOP-92 NSCLC): 14.5 µM
TGI (HOP-92 NSCLC): 72.1 µM
GI50 (A498 renal): 22 µM
TGI (A498 renal): 69.6 µM
GI50 (RXF 393 renal): 3.53 µM
TGI (RXF 393 renal): 25.1 µM
GI50 (EKVX NSCLC): 29.1 µM
TGI (EKVX NSCLC): > 100 µM
GI50 (UACC-257 melanoma): 38.3 µM
TGI (UACC-257 melanoma): > 100 µM
GI50 (CAKI-1 renal): 9.97 µM
TGI (CAKI-1 renal): 35.1 µM
GI50 (OVCAR-3 ovarian): 17.9 µM
TGI (OVCAR-3 ovarian): 78 µM
GI50 (SF-268 CNS): 15.9 µM
TGI (SF-268 CNS): 44.6 µM
GI50 (UACC-62 melanoma): 39.7 µM
TGI (UACC-62 melanoma): > 100 µM
GI50 (UO-31 renal): 15.9 µM
TGI (UO-31 renal): 71.1 µM
GI50 (HCT-15 colon): 25.8 µM
TGI (HCT-15 colon): > 100 µM
GI50 (M14 melanoma): 23.4 µM
TGI (M14 melanoma): 64.9 µM
GI50 (OVCAR-8 ovarian): 25.5 µM
TGI (OVCAR-8 ovarian): > 100 µM
GI50 (MCF7 breast): 35.4 µM
TGI (MCF7 breast): > 100 µM
GI50 (SN12C renal): 13.4 µM
TGI (SN12C renal): 86.9 µM
GI50 (IGROV1 ovarian): 19.2 µM
TGI (IGROV1 ovarian): 97.3 µM
GI50 (SNB-19 CNS): 44.6 µM
TGI (SNB-19 CNS): > 100 µM
GI50 (RPMI-8226 leukemia): 11.7 µM
TGI (RPMI-8226 leukemia): 63 µM
GI50 (SW-620 colon): 77.4 µM
TGI (SW-620 colon): > 100 µM
GI50 (MDA-MB-435 melanoma): 74.1 µM
TGI (MDA-MB-435 melanoma): > 100 µM
GI50 (SK-MEL-5 melanoma): 17.8 µM
TGI (SK-MEL-5 melanoma): 55.5 µM
GI50 (NCI-H522 lung): 5.29 µM
TGI (NCI-H522 lung): 20.6 µM
